Results published in the NIST ThermoML archive (doi:10.1021/acs.jced.7b00503).

Assay: wn = mass fraction of the nth substance listed
Conditions: Pendant drop shape

O [water] + [I-].[K+]
w2 = 0
Conditions | surface tension liquid-gas [mN/m]
293.15 K | 72.75
298.15 K | 71.97
303.15 K | 71.15
313.15 K | 69.55
323.15 K | 67.9
333.15 K | 66.17

[Br-].[Na+] [sodium bromide] + O
surface tension liquid-gas [mN/m]
Conditions | w1 = 0.05 | w1 = 0.1 | w1 = 0.15 | w1 = 0.2 | w1 = 0.25 | w1 = 0.3 | w1 = 0.35 | w1 = 0.4
293.15 K | 74.11 | 75.5 | 76.51 | 77.4 | 78.93 | 80.32 | 82 | 83.5
303.15 K | 72.43 | 73.5 | 74.83 | 75.4 | 77.25 | 78.62 | 80.31 | 81.93
313.15 K | 70.75 | 72 | 73.14 | 74.1 | 75.68 | 77.05 | 78.73 | 80.36
323.15 K | 69.07 | 70 | 71.36 | 72.6 | 74 | 75.26 | 77.05 | 78.56
333.15 K | 67.28 | 68.4 | 69.67 | 70.8 | 72.31 | 73.6 | 75.37 | 76.87
343.15 K | 65.49 | 66.4 | 67.85 | 69.5 | 70.52 | 71.87 | 73.9 | 75.73
353.15 K | 63.71 | 64.73 | 65.99 | 67.34 | 68.6 | 70.06 | 71.81 | 73.32

O [water] + [Br-].[Na+]
w2 = 0
Conditions | surface tension liquid-gas [mN/m]
293.15 K | 72.75
303.15 K | 71.15
313.15 K | 69.55
323.15 K | 67.9
333.15 K | 66.17
343.15 K | 64.39
353.15 K | 62.61

O [water] + [I-].[Na+]
w2 = 0
Conditions | surface tension liquid-gas [mN/m]
293.15 K | 72.75
298.15 K | 71.97
303.15 K | 71.15
313.15 K | 69.55
323.15 K | 67.9
333.15 K | 66.17

[I-].[K+] [potassium iodide] + O
surface tension liquid-gas [mN/m]
Conditions | 293.15 K | 298.15 K | 303.15 K | 313.15 K | 323.15 K | 333.15 K
w1 = 0.01 | 73.24 | 72.53 | 71.81 | 70.45 | 68.95 | 67.52
w1 = 0.02 | 73.65 | 73 | 72.35 | 71.05 | 69.69 | 68.36
w1 = 0.03 | 74.15 | 73.57 | 72.85 | 71.62 | 70.32 | 68.95
w1 = 0.04 | 75.05 | 74.45 | 73.7 | 72.4 | 71.2 | 69.75
w1 = 0.05 | 75.44 | 74.79 | 74 | 72.7 | 71.47 | 69.98
w1 = 0.06 | 76.12 | 75.4 | 74.75 | 73.39 | 72.15 | 70.53
w1 = 0.07 | 76.76 | 76.04 | 75.39 | 74.09 | 72.6 | 70.97
w1 = 0.08 | 77.23 | 77.03 | 76.15 | 74.96 | 73.86 | 72.7
w1 = 0.09 | 78.32 | 77.68 | 77.09 | 75.86 | 74.62 | 73.19
w1 = 0.1 | 79.11 | 78.6 | 78 | 76.83 | 75.66 | 74.36
w1 = 0.11 | 80.21 | 79.5 | 78.84 | 77.67 | 76.43 | 75.26
w1 = 0.12 | 81.04 | 80.2 | 79.51 | 78.4 | 77.16 | 75.86
